Patent publication US20100267561A1, “HERBICIDAL PYRIDAZINONE DERIVATIVES” (priority 2007, published 2010)

Experiments:
Assay type in all cases: in vivo
[1] = tested on: bermudagrass (Cynodon dactylon); test: Test B pre-/postemergence plant response; details: for Bermudagrass plant response rating: 8 g ai/ha
Description: (§1) Seeds of plant species selected from blackgrass (Alopecurus myosuroides), downy bromegrass (Bromus tectorum), green foxtail (Setaria viridis), Italian ryegrass (Lolium multiflorum), wheat (Triticum aestivum), wild oat (Avena fatua), catchweed bedstraw (Galium aparine), bermudagrass (Cynodon dactylon), surinam grass (Brachiaria decumbens), cocklebur (Xanthium strumarium), corn (Zea mays), large crabgrass (Digitaria sanguinalis), woolly cupgrass (Eriochloa villosa), giant foxtail (Setaria faberii), goosegrass (Eleusine indica), johnsongrass (Sorghum halepense), kochia (Kochia scoparia), lambsquarters (Chenopodium album), morningglory (Ipomoea coccinea), eastern black (E.B.) nightshade (Solanum ptycanthum), yellow nutsedge (Cyperus esculentus), pigweed (Amaranthus retroflexus), common ragweed (Ambrosia elation), Russian thistle (Salsola iberica), soybean (Glycine max), common (oilseed) sunflower (Helianthus annuus), and velvetleaf (Abutilon theophrasti) were planted and treated preemergence with test chemicals formulated in a non-phytotoxic solvent mixture which included a surfactant.
(§2) At the same time, plants selected from these crop and weed species and also winter barley (Hordeum vulgare), canarygrass (Phalaris minor), chickweed (Stellaria media) and windgrass (Apera spica-venti) were treated with postemergence applications of some of the test chemicals formulated in the same manner. Plants ranged in height from 2 to 18 cm (1- to 4-leaf stage) for postemergence treatments.
(§3) Plant species in the flooded paddy test consisted of rice (Oryza sativa), umbrella sedge (Cyperus difformis), ducksalad (Heteranthera limosa) and barnyardgrass (Echinochloa crus-galli) grown to the 2-leaf stage for testing. At time of treatment, test pots were flooded to 3 cm above the soil surface, treated by application of test compounds directly to the paddy water, and then maintained at that water depth for the duration of the test. Treated plants and controls were maintained in a greenhouse for 13 to 15 days, after which time all species were compared to controls and visually evaluated. Plant response ratings, summarized in Table B, are based on a scale of 0 to 100 where 0 is no effect and 100 is complete control. A dash (-) response means no test result.

[2] = tested on: eastern black (E.B.) nightshade (Solanum ptycanthum); test: Test B pre-/postemergence plant response; details: Preemergence
Description: as §1, §2, §3

[3] = tested on: yellow nutsedge (Cyperus esculentus); test: Test B pre-/postemergence plant response; details: for Nutsedge, Yellow plant response rating: 8 g ai/ha
Description: as §1, §2, §3

[4] = tested on: wheat (Triticum aestivum); test: Test B pre-/postemergence plant response; details: for Wheat plant response rating: 8 g ai/ha
Description: as §1, §2, §3

[5] = tested on: velvetleaf (Abutilon theophrasti); test: Test B pre-/postemergence plant response; details: for Velvetleaf plant response rating: 8 g ai/ha
Description: as §1, §2, §3

[6] = tested on: soybean (Glycine max); test: Test B pre-/postemergence plant response; details: for Soybean plant response rating: 8 g ai/ha
Description: as §1, §2, §3

[7] = tested on: common (oilseed) sunflower (Helianthus annuus); test: Test B pre-/postemergence plant response; details: Preemergence
Description: as §1, §2, §3

[8] = tested on: johnsongrass (Sorghum halepense); test: Test B pre-/postemergence plant response; details: for Johnsongrass plant response rating: 8 g ai/ha
Description: as §1, §2, §3

[9] = tested on: kochia (Kochia scoparia); test: Test B pre-/postemergence plant response; details: for Kochia plant response rating: 8 g ai/ha
Description: as §1, §2, §3

[10] = tested on: Italian ryegrass (Lolium multiflorum); test: Test B pre-/postemergence plant response; details: for Ryegrass, Italian plant response rating: 8 g ai/ha
Description: as §1, §2, §3

[11] = tested on: corn (Zea mays); test: Test A pre-/postemergence plant response
Method in brief: (§4)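 Greenhouse pot test: loam–sand soil; pre- and postemergence sprays applied same day; post plants 2–10 cm, 1–2 leaves. Readout ~10 d, visual % injury vs untreated (0 = none, 100 = complete control).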

[12] = tested on: giant foxtail (Setaria faberi); test: Test A pre-/postemergence plant response
Method in brief: as §4

[13] = Postemergence, 16 g ai/ha, scale 0 to 100
[14] = Postemergence, 31 g ai/ha, scale 0 to 100, 0 no effect, 100 complete control
[15] = Preemergence, 16 g ai/ha, scale 0 to 100 (0 no effect, 100 complete control)
[16] = Preemergence, 31 g ai/ha, 0 to 100 scale, 0 no effect, 100 complete control
[17] = Preemergence, 62 g ai/ha, scale 0 to 100
[18] = 16 g ai/ha, scale 0 to 100 (0 no effect, 100 complete control)
[19] = 31 g ai/ha, scale 0 to 100 (0 no effect, 100 complete control)
[20] = Postemergence, 62 g ai/ha, scale 0 to 100, 0 no effect, 100 complete control
[21] = Preemergence, 31 g ai/ha, scale 0 to 100 (0 no effect, 100 complete control)
[22] = Preemergence, 62 g ai/ha, 0 to 100 scale, 0 no effect, 100 complete control
[23] = Postemergence, 31 g ai/ha, 0 to 100 scale, 0 no effect, 100 complete control
[24] = Postemergence, 125 g ai/ha, 0 to 100 scale, 0 no effect, 100 complete control
[25] = Preemergence, 31 g ai/ha, 0 to 100 scale, 0 is no effect, 100 is complete control
[26] = Preemergence, 125 g ai/ha, 0 to 100 scale (0 no effect, 100 complete control)

Structure (SMILES): CCCc1cc(-c2ccc(Cl)cc2)nn1-c1c(O)cnn(C)c1=O [Compound 43]
- Bermudagrass plant response rating ([1]; postemergence, 0-100 scale): 20
- Plant response rating, Bermudagrass [1, 13]: 45
- Plant response rating, Bermudagrass [1, 14]: 65
- Bermudagrass plant response rating ([1]; Preemergence, scale 0 to 100 (0 no effect, 100 complete control)): 0
- Plant response rating, Bermudagrass [1, 15]: 0
- Plant response rating, Bermudagrass [1, 16]: 65
- Plant response rating, Bermudagrass [1, 17]: 95
- Plant response rating, Nightshade, E. B. [2, 18]: 0
- Plant response rating, Nightshade, E. B. [2, 19]: 0
- Plant response rating, Nightshade, E. B. ([2]; 62 g ai/ha, scale 0 to 100): 0
- Nightshade, E. B. plant response rating ([2]; 8 g ai/ha, scale 0 to 100): 0
- Nutsedge, Yellow plant response rating ([3]; postemergence, 0-100 scale): 0
- Plant response rating, Nutsedge, Yellow [3, 13]: 0
- Plant response rating, Nutsedge, Yellow [3, 14]: 0
- Plant response rating, Nutsedge, Yellow [3, 20]: 0
- Plant response rating, Nutsedge, Yellow [3, 15]: 0
- Plant response rating, Nutsedge, Yellow [3, 21]: 0
- Plant response rating, Nutsedge, Yellow [3, 17]: 0
- Nutsedge, Yellow plant response rating ([3]; Preemergence, scale 0 to 100): 0
- Wheat plant response rating ([4]; postemergence, 0-100 scale): 30
- Plant response rating, Wheat [4, 13]: 70
- Plant response rating, Wheat [4, 20]: 100
- Plant response rating, Wheat [4, 15]: 10
- Plant response rating, Wheat [4, 21]: 15
- Plant response rating, Wheat [4, 22]: 80
- Wheat plant response rating ([4]; Preemergence, scale 0 to 100): 0
- Velvetleaf plant response rating ([5]; postemergence, 0-100 scale): 0
- Plant response rating, Velvetleaf [5, 13]: 0
- Plant response rating, Velvetleaf [5, 20]: 0
- Plant response rating, Velvetleaf [5, 15]: 0
- Plant response rating, Velvetleaf [5, 21]: 0
- Plant response rating, Velvetleaf [5, 22]: 0
- Velvetleaf plant response rating ([5]; Preemergence, scale 0 to 100): 0
- Soybean plant response rating ([6]; postemergence, 0-100 scale): 0
- Plant response rating, Soybean [6, 13]: 0
- Plant response rating, Soybean [6, 20]: 0
- Plant response rating, Soybean [6, 15]: 0
- Plant response rating, Soybean [6, 21]: 0
- Plant response rating, Soybean [6, 17]: 0
- Soybean plant response rating ([6]; Preemergence, scale 0 to 100): 0
- Plant response rating, Sunflower [7, 18]: 0
- Plant response rating, Sunflower [7, 19]: 0
- Plant response rating, Sunflower ([7]; 62 g ai/ha, scale 0 to 100): 0
- Sunflower plant response rating ([7]; 8 g ai/ha, scale 0 to 100): 0
- Johnsongrass plant response rating ([8]; postemergence, 0-100 scale): 0
- Plant response rating, Johnsongrass [8, 13]: 0
- Plant response rating, Johnsongrass [8, 14]: 80
- Plant response rating, Johnsongrass [8, 20]: 100
- Plant response rating, Johnsongrass [8, 15]: 65
- Plant response rating, Johnsongrass [8, 16]: 80
- Plant response rating, Johnsongrass [8, 17]: 98
- Johnsongrass plant response rating ([8]; Preemergence, scale 0 to 100): 20
- Kochia plant response rating ([9]; postemergence, 0-100 scale): 0
- Plant response rating, Kochia [9, 13]: 0
- Plant response rating, Kochia [9, 14]: 0
- Plant response rating, Kochia [9, 20]: 0
- Plant response rating, Kochia [9, 15]: 0
- Plant response rating, Kochia [9, 16]: 0
- Plant response rating, Kochia [9, 17]: 0
- Kochia plant response rating ([9]; Preemergence, scale 0 to 100): 0
- Ryegrass, Italian plant response rating ([10]; postemergence, 0-100 scale): 80
- Plant response rating, Ryegrass, Italian [10, 13]: 90
- Plant response rating, Ryegrass, Italian [10, 14]: 100
- Plant response rating, Ryegrass, Italian [10, 20]: 100
- Plant response rating, Ryegrass, Italian [10, 15]: 90
- Plant response rating, Ryegrass, Italian [10, 21]: 90
- Plant response rating, Ryegrass, Italian [10, 17]: 90
- Ryegrass, Italian plant response rating ([10]; Preemergence, scale 0 to 100): 90
- Plant response rating, Corn [11, 23]: 50
- Plant response rating, Corn [11, 24]: 80
- Plant response rating, Corn [11, 25]: 0
- Plant response rating, Corn [11, 26]: 90
- Plant response rating, Foxtail, Giant [12, 23]: 80
- Plant response rating, Foxtail, Giant [12, 24]: 100
- Plant response rating, Foxtail, Giant [12, 25]: 90
- Plant response rating, Foxtail, Giant [12, 26]: 100
